We go through 24 molecules from US11110082B2, “Tyrosine kinase inhibitors” (Rigel Pharmaceuticals, Inc., priority 2016, dated 2021).

For the assay, the target named is T1, MerTK (Homo sapiens, UniProt Q12866).
T1 construct: Seed HUVECs (10K cells/well) in EBM-2 complete media; host or cells: HUVEC (primary human umbilical vein endothelial cells)
T1 sequence (Q12866 21-999): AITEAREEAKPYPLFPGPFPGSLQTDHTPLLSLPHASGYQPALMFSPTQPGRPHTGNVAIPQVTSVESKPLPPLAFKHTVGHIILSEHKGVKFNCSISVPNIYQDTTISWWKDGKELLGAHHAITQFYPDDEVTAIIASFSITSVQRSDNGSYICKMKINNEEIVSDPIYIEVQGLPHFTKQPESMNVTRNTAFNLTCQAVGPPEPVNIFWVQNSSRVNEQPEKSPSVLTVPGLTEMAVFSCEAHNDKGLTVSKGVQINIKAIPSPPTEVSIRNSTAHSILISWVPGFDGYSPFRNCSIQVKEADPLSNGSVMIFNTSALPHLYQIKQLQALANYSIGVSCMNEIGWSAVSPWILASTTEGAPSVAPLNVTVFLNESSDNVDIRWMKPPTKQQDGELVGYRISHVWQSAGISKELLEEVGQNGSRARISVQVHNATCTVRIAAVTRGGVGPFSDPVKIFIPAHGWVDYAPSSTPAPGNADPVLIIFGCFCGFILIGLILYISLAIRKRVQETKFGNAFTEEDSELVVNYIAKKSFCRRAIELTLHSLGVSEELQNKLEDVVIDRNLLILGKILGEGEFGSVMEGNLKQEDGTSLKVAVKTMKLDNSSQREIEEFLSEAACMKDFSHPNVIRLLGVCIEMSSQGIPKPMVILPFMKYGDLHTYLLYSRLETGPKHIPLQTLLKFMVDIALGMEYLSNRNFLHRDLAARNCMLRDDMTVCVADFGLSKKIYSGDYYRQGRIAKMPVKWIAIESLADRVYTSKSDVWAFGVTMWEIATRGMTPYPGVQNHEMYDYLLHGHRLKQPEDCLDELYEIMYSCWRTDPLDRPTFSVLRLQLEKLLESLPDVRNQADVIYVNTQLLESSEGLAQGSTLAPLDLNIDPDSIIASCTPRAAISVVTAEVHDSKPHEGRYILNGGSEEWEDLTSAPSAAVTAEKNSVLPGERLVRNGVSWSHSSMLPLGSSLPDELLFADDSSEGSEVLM
The assay can be described thus: PAKT HTRF-HUVEC assay (pAkt Ser473 HTRF after anti-human MerTK-XL stimulation). The format is cell-based. As to conditions: HUVEC cells, 1 hour compound, stimulated with anti-human MerTK-XL 1 ug/mL for 10 minutes, read-out: inhibition of MerTK. Summed up: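 HUVECs starved 3-4 h in basal medium, preincubated with compound 1 h at 37° C, then stimulated 10 min with cross-linked anti-human MerTK antibody (final 1 ug/mL). Lysates read for pAkt (Ser473) by HTRF; EC50 from curve fitting.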
(TR-FRET usually uses a lanthanide donor and a delayed reading to cut background.)
Consider `O=c1c2cc(N3CC4(COC4)C3)ccc2c2cnc(NC3CC(F)C3)nc2n1[C@H]1CC[C@H](O)CC1` (stereo partly drawn) [Compound 75, trans-3-((3-Fluorocyclobutyl)amino)-5-(4-hydroxycyclohexyl)-8-(2-oxa-6-azaspiro[3.3]heptan-6-yl)pyrimido[4,5-c]isoquinolin-6(5H)-one], for which the EC50 stood at 1080 nM. Take `CCCCNc1ncc2c3ccc(N4CCN5CCC[C@@H]5C4)cc3c(=O)n([C@H]3CC[C@H](O)CC3)c2n1` [Compound 76, trans-3-(Butylamino)-8-((R)-hexahydropyrrolo[1,2-a]pyrazin-2(1H)-yl)-5-(4-hydroxycyclohexyl)pyrimido [4,5-c]isoquinolin-6(5H)-one]: the EC50 turned out to be 11.5 nM. With `CCCCNc1ncc2c3ccc(N4CCN(C5COC5)CC4)cc3c(=O)n([C@H]3CC[C@H](O)CC3)c2n1` [Compound 77, trans-3-(Butylamino)-5-(4-hydroxycyclohexyl)-8-(4-(oxetan-3-yl)piperazin-1-yl)pyrimido[4,5-c]isoquinolin-6(5H)-one] the figure was 21.9 nM; with `CCCCNc1ncc2c3ccc(N4C[C@@H](C)N(C)C[C@@H]4C)cc3c(=O)n([C@H]3CC[C@H](O)CC3)c2n1` [Compound 78, trans-3-(Butylamino)-5-(4-hydroxycyclohexyl)-8-((2S,5R)-2,4,5-trimethylpiperazin-1-yl)pyrimido[4,5-c]isoquinolin-6(5H)-one], 9 nM. With `CCCCNc1ncc2c3ccc(N4C[C@@H](C)N(C)C[C@@H]4C)cc3c(=O)n(C3CCC(=O)CC3)c2n1` [Compound 79, 3-(Butylamino)-5-(4-oxocyclohexyl)-8-((2S,5R)-2,4,5-trimethylpiperazin-1-yl)pyrimido[4,5-c]isoquinolin-6(5H)-one] the figure was 156 nM; with `CCCCNc1ncc2c3ccc(N4CCn5ncnc5C4)cc3c(=O)n([C@H]3CC[C@H](O)CC3)c2n1` [Compound 80, trans-3-(Butylamino)-8-(5,6-dihydro-[1,2,4]triazolo[1,5-a]pyrazin-7(8H)-yl)-5-(4-hydroxycyclohexyl)pyrimido [4,5-c]isoquinolin-6(5H)-one], 34.5 nM. Next, `CCCCNc1ncc2c3ccc(N4CCN5CCC4CC5)cc3c(=O)n([C@H]3CC[C@H](O)CC3)c2n1` [Compound 81, trans-8-(1,4-Diazabicyclo[3.2.2]nonan-4-yl)-3-(butylamino)-5-(4-hydroxycyclohexyl)pyrimido[4,5-c]isoquinolin-6(5H)-one]: 13.9 nM; `CCCCNc1ncc2c3ccc(N4CCN5CCC4CC5)cc3c(=O)n(C3CCC(=O)CC3)c2n1` [Compound 82, 8-(1,4-Diazabicyclo[3.2.2]nonan-4-yl)-3-(butylamino)-5-(4-oxocyclohexyl)pyrimido[4,5-c]isoquinolin-6(5H)-one]: 216 nM; `CCCCNc1ncc2c3ccc(N4CCNCC4)cc3c(=O)n([C@H]3CC[C@H](O)CC3)c2n1` [Compound 83, trans-3-(Butylamino)-5-(4-hydroxycyclohexyl)-8-(piperazin-1-yl)pyrimido[4,5-c]isoquinolin-6(5H)-one]: 31.8 nM.

As to `CCCCNc1ncc2c3ccc(N4CCNCC4)cc3c(=O)n(C3CCC(=O)CC3)c2n1` [Compound 84, 3-(Butylamino)-5-(4-oxocyclohexyl)-8-(piperazin-1-yl)pyrimido[4,5-c]isoquinolin-6(5H)-one], the EC50 amounted to 288 nM.

As to `CN1CCN(c2ccc3c(c2)c(=O)n([C@H]2CC[C@H](O)CC2)c2nc(NC4CC(F)(F)C4)ncc32)CC1` [Compound 85, trans-3-((3,3-Difluorocyclobutyl)amino)-5-(4-hydroxycyclohexyl)-8-(4-methylpiperazin-1-yl)pyrimido[4,5-c]isoquinolin-6(5H)-one], the EC50 came to 221 nM. Regarding `CCCCNc1ncc2c3ccc(N4CCN(C)CC4)cc3c(=O)n(C3CCC(C)(O)CC3)c2n1` (stereo not drawn) [Compound 86, trans-3-(Butylamino)-5-(4-hydroxy-4-methylcyclohexyl)-8-(4-methylpiperazin-1-yl)pyrimido[4,5-c]isoquinolin-6(5H)-one], the EC50 is 19.9 nM. With `CN1CCN(c2ccc3c(c2)c(=O)n([C@H]2CC[C@H](O)CC2)c2nc(NCC4CC4)ncc32)CC1` [Compound 87, trans-3-((Cyclopropylmethyl)amino)-5-(4-hydroxycyclohexyl)-8-(4-methylpiperazin-1-yl)pyrimido[4,5-c]isoquinolin-6(5H)-one] the figure was 115 nM; with `CCCCNc1ncc2c3ccc(N4CCN(C)CC4)cc3c(=O)n(C3CC4(CC(O)C4)C3)c2n1` (stereo not drawn) [Compound 88, 3-(Butylamino)-5-(6-hydroxyspiro[3.3]heptan-2-yl)-8-(4-methylpiperazin-1-yl)pyrimido[4,5-c]isoquinolin-6(5H)-one], 51 nM. With `CCCCNc1ncc2c3ccc(N4CCN(C)CC4)cc3c(=O)n([C@H]3CC[C@@](C)(O)CC3)c2n1` [Compound 89, cis-3-(Butylamino)-5-(4-hydroxy-4-methylcyclohexyl)-8-(4-methylpiperazin-1-yl)pyrimido[4,5-c]isoquinolin-6(5H)-one] the figure was 152 nM; with `CCCCNc1ncc2c3ccc(N4CCN(C)[C@H](C)C4)cc3c(=O)n([C@H]3CC[C@H](O)CC3)c2n1` [Compound 90, trans-3-(Butylamino)-8-((R)-3,4-dimethylpiperazin-1-yl)-5-(4-hydroxycyclohexyl)pyrimido [4,5-c]isoquinolin-6(5H)-one], 13.1 nM.

Take `CCC1(CNc2ncc3c4ccc(N5CCN(C)CC5)cc4c(=O)n([C@H]4CC[C@H](O)CC4)c3n2)CCC1` [Compound 91, trans-3-(((1-Ethylcyclobutyl)methyl)amino)-5-(4-hydroxycyclohexyl)-8-(4-methylpiperazin-1-yl)pyrimido[4,5-c]isoquinolin-6(5H)-one]: the EC50 amounted to 3910 nM. Next, `CN1CCN(c2ccc3c(c2)c(=O)n([C@H]2CC[C@H](O)CC2)c2nc(NCC4CCC4)ncc32)CC1` [Compound 92, trans-3-((Cyclobutylmethyl)amino)-5-(4-hydroxycyclohexyl)-8-(4-methylpiperazin-1-yl)pyrimido[4,5-c]isoquinolin-6(5H)-one]: 38.8 nM. Next, `CCC(F)(F)CNc1ncc2c3ccc(N4CCN(C)CC4)cc3c(=O)n([C@H]3CC[C@H](O)CC3)c2n1` [Compound 93, trans-3-((2,2-Difluorobutyl)amino)-5-(4-hydroxycyclohexyl)-8-(4-methylpiperazin-1-yl)pyrimido[4,5-c]isoquinolin-6(5H)-one]: 358 nM. Turning to `CCC1(CNc2ncc3c4ccc(N5CCN(C)CC5)cc4c(=O)n([C@H]4CC[C@H](O)CC4)c3n2)CC1` [Compound 94, trans-3-(((1-Ethylcyclopropyl)methyl)amino)-5-(4-hydroxycyclohexyl)-8-(4-methylpiperazin-1-yl)pyrimido[4,5-c]isoquinolin-6(5H)-one], the EC50 is 1100 nM. With `CN1CCN(c2ccc3c(c2)c(=O)n([C@H]2CC[C@H](O)CC2)c2nc(NCCCC(F)(F)F)ncc32)CC1` [Compound 95, trans-5-(4-Hydroxycyclohexyl)-8-(4-methylpiperazin-1-yl)-3-((4,4,4-trifluorobutyl)amino)pyrimido [4,5-c]isoquinolin-6(5H)-one] the figure was 3920 nM. Next, `CN1CCN(c2ccc3c(c2)c(=O)n([C@H]2CC[C@H](O)CC2)c2nc(NCCC4CC4)ncc32)CC1` [Compound 96, trans-3-((2-Cyclopropylethyl)amino)-5-(4-hydroxycyclohexyl)-8-(4-methylpiperazin-1-yl)pyrimido[4,5-c]isoquinolin-6(5H)-one]: 41.4 nM. As for `CN1CCN(c2ccc3c(c2)c(=O)n(C2CCC(C)(O)CC2)c2nc(NCC4CC4)ncc32)CC1` (stereo not drawn) [Compound 97, trans-3-((Cyclopropylmethyl)amino)-5-(4-hydroxy-4-methylcyclohexyl)-8-(4-methylpiperazin-1-yl)pyrimido[4,5-c]isoquinolin-6(5H)-one], the EC50 worked out at 69.1 nM.

For the molecule `CN1CCN(c2ccc3c(c2)c(=O)n([C@H]2CC[C@](C)(O)CC2)c2nc(NCCC4CC4)ncc32)CC1` [Compound 98, trans-3-((2-Cyclopropylethyl)amino)-5-(4-hydroxy-4-methylcyclohexyl)-8-(4-methylpiperazin-1-yl)pyrimido[4,5-c]isoquinolin-6(5H)-one], the EC50 came out at 35.7 nM.
